Data: US20240174631A1, “COMPOUNDS, COMPOSITIONS, AND METHODS FOR MODULATING FGF ACTIVITY” (Recovery Therapeutics, Inc., priority 2021, published 2024)

Biological target: FGFR1 (Homo sapiens, UniProt P11362)
Experiment: Thermal shift assay (TSA) of FGFR1/FGF2 complex, FGFR1 melting peak
Format: binding
Parameters: made in house; host or cells: Escherichia coli BL21 (DE3) Star
Description: TSA was utilized to biophysically characterize the recombinant human FGFR1/FGF2 complex in the presence or absence of compounds. The assay functions by protein denaturation over a temperature gradient. During protein unfolding, exposed hydrophobic regions bind a dye and fluoresce due to solvent relaxation effects. Changes in the melting temperature of the protein complex in the presence of each compound were monitored and compounds were screened/ranked using this method.
Cell pellets were thawed and resuspend in 100 mL of FGFR1 Lysis Buffer per 9 g of pellet (20 mM Tris-HCl pH 8.0, 500 mM NaCl, 1 mM dithiothreitol) by stirring at 4° C. for 1 hour. Cells were lysed in 3 cycles on/off for 3 minutes each at 4° C. via sonication followed by centrifugation for 30 minutes at 16,000 RPM in rotor F20 at 4° C., after which the supernatant was discarded. This process was then repeated twice. The pellets were resuspended in 150 mL FGFR1 solubilization buffer (8 M urea, 20 mM Tris-HCL pH 8.0, 150 mM NaCl, 1 mM dithiothreitol) by stirring for 1 hour at 4° C., and the solution was subjected to centrifugation for 30 minutes at 16,000 RPM in rotor F20 at 4° C. The pellets were discarded, and the supernatant was filtered through a […] polyethersylfone (PES) filter. After filtration, the supernatant was added dropwise to 1 L FGFR1 refolding buffer (20 mM Tris-HCl pH 8.0, 150 mM NaCl, 0.5 M L-arginine, 25 mM MgCl2) using a glass column. Protein was concentrated by tangential flow from 1 L to 100 mL and dialyzed against 1 L of FGFR1 Dialysis Buffer (20 mM Tris-HCl pH 8.0, 150 mM NaCl, 25 mM MgCl2) for 2 hours at 4° C., and the dialysis step was repeated with fresh buffer for an additional 2 hours at 4° C. The material thus obtained was then centrifuged at 4000 RPM in Eppendorf tabletop centrifuge for 5 minutes and loaded onto 2×5 mL heparin columns. The columns were washed extensively (20 CV) using FGFR1 Heparin Buffer A (20 mM Tris-HCl pH 8.0, 150 mM NaCl, 25 mM MgCl2) and then eluted using FGFR1 Heparin Buffer B (20 mM Tris-HCl pH 8.0, 1.5 M NaCl, 25 mM MgCl2). A large peak was recovered that was >95% pure by SDS-PAGE analysis gel (Expected Mw: 25 KDa). The protein was collected and diluted in 20 mM Tris-HCl pH 8.0, 25 mM MgCl2 buffer in order to reach a NaCl concentration of 150 mM. The FGFR1 thus obtained was concentrated and stored at −80° C.
Thawed aliquots of purified FGF2 (1.0 mg/mL) and FGFR1 (1.6 mg/mL) proteins were mixed in a 1:1 molar ratio (64 μM: 64 μM) on ice for 30 min at 4° C. and plated prior to the thermal shift assay (TSA). Complex formation was verified by loading the complexed material on a size exclusion column (superdex 300GL S200) and observing the monodisperse peak corresponding to the FGF2/FGFR1 complex (˜40 kDa). Compounds of the invention were screened in dose response format (0-100 μM) with the FGF2/FGFR1 complex in triplicates. FGF2/FGFR1/compound complexes were mixed in a 1000:1 ratio with Sypro Orange dye (Sigma-Aldrich). The samples were processed using a Bio-Rad CFX C96 Touch quantitative polymerase chain reaction and run using the FRET assay settings with a heating ramp of 0.3° C./s cycling from 4 to 100° C. Data analysis was performed using the Bio-Rad CFX Manager Software (version 3.1, Bio-Rad) and changes in the melting temperature (Tm) of the complex in the presence of each compound were monitored. The results are shown in Tables 2 and 3 below and also in FIG. 1 (for Compound 2).

Chain of FGFR1 (P11362 142-365 limits assumed): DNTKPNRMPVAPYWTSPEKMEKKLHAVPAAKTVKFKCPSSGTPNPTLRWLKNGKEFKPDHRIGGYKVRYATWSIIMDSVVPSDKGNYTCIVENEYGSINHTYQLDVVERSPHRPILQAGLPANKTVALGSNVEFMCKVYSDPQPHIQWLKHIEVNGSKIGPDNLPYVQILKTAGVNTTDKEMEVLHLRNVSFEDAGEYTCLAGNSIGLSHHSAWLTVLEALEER
Chain of FGFR1 (P09038 156-288 partner limits assumed): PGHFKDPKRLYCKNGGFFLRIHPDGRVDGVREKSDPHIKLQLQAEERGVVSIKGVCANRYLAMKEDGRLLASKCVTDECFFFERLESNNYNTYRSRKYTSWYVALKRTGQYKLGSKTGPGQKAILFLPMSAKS

ΔTm at 2 µM (2 μM compound, FGF2/FGFR1 complex): 4 °C
ΔTm at 10 µM (10 μM compound, FGF2/FGFR1 complex): 4.5 °C
shift of the melting curve of the FGF-2/FGFR1 complex (TSA) (10 μM, purified FGF-2/FGFR1 complex, FIG. 1): increased stability of the complex
SMILES: CCN(CC)c1ccc2c(c1)CCN(C1CCN(C(c3ccccc3)c3ccccc3)CC1)C2 [Compound 2, 2-(1-benzhydrylpiperidin-4-yl)-N,N-diethyl-1,2,3,4-tetrahydroisoquinolin-6-amine]
